This is an account of results in patent US20020104106A1, “Non-mammalian transgenic animal model for cellular proliferative diseases” (priority 1999, published 2002).

The assay has as its system tumor fly model. Briefly: Screening assay: extracts fed to v-myb tumor flies, delay of tumor progression. The conditions noted are these: extract concentration fed to the larva/fly that delayed tumor progression by 20% or more. The format is in vivo, Drosophila melanogaster. As to the method:
In the screening methods of the subject invention, a quantity of a candidate agent is generally orally administered to the fly. Following oral administration, the affect of the candidate agent on the metastatic tumors (or appearance thereof) of the fly is determined, typically by comparison with a control (i.e. a transgenic fly to which the candidate agent has not been administered). The affect of the candidate agent is determined by determining whether one or more of the phenotypic characteristics of the neoplastic condition are exacerbated or ameliorated in the test fly as compared to the control fly, where characteristics that are monitored include tumor growth, tumor metastasis, and the like. The candidate agent is generally orally administered to the fly by mixing the agent into the fly nutrient medium, e.g. water, aqueous solution with additional nutrient agents, etc., and placing the medium in the presence of the fly, (either the larva or adult fly, usually the adult fly) such that the fly feeds on the medium. Generally a plurality of assay mixtures are run in parallel with different agent concentrations to obtain a differential response to the various concentrations of candidate agent. Typically, one of these concentrations serves as a negative control, i.e. no compound. […]

As to `CC(C)=CCC/C(C)=C/C=C/C(C)=C/C=C/C(C)=C/C=C/C=C(C)/C=C/C=C(C)/C=C/C=C(\C)CCC=C(C)C` [Lycopene], the “Positive antitumor activity dose range” value is “.01%-100%”.
